# pIC50: −log10 of the molar value.
# Biological target: T1, Short transient receptor potential channel 5 (Homo sapiens, UniProt Q9UL62)
# T1 sequence (Q9UL62 whole entry): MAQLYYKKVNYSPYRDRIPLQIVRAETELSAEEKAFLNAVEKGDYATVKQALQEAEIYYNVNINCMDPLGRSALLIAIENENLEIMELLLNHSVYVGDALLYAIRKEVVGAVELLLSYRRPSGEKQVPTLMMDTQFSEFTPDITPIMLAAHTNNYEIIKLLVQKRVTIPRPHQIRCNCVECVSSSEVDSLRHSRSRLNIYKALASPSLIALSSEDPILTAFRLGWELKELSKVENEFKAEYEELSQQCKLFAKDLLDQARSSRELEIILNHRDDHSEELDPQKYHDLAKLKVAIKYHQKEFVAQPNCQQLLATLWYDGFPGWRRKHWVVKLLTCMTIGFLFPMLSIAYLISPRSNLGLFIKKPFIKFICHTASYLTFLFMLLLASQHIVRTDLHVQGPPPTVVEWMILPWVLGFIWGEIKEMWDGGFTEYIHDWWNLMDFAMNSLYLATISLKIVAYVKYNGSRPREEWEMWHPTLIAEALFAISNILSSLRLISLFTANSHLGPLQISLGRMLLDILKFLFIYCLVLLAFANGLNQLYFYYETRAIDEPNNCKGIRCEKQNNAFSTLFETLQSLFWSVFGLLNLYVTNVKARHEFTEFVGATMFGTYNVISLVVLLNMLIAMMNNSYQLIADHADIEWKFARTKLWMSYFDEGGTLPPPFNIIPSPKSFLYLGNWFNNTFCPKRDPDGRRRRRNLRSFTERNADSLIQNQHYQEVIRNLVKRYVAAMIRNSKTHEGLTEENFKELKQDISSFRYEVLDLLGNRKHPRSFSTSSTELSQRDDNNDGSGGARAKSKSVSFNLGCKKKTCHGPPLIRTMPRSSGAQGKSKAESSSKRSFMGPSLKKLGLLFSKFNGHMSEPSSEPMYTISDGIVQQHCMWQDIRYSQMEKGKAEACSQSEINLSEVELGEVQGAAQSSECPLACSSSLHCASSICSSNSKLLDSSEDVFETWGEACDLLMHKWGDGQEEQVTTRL
# Test: Inhibition of human TRPC5 expressed in HEK293-T-REx cells assessed as decrease in riluzole-induced calcium response preincubated for 5 min followed by riluzole stimulation by Fluo-4 AM dye based FLIPR assay
# Type: cell-based
row,SMILES,pIC50
1,O=c1[nH]ncc(N2CCc3c(ncnc3N(CCO)c3ccc(F)cc3C(F)(F)F)C2)c1Cl,≥ 7.30
2,O=c1[nH]ncc(N2CCc3c(ncnc3Oc3ccc(F)cc3Cl)C2)c1Cl,≥ 7.30
3,CCc1c(F)cccc1Oc1ncnc2c1CCN(c1cn[nH]c(=O)c1Cl)C2,≥ 7.30

# Next, values leading:
row,pIC50,SMILES
1,≥ 7.30,O=c1[nH]ncc(N2CCc3c(ncnc3Oc3ccccc3C(F)(F)F)C2)c1Cl
2,≥ 7.30,CN(c1cnccc1C(F)(F)F)c1ncnc2c1CCN(c1cn[nH]c(=O)c1Cl)C2

# From ChEMBL document CHEMBL4706721, “Novel Pyridazinones as TRPC5 Inhibitors for Treating Kidney Diseases” (ACS Med Chem Lett, 2021)
